In patent US20250051356A1, “RIFABUTIN ANALOGS FOR THE TREATMENT OF DISEASE” (priority 2021, published 2025):
In brackets after ≈: the same amount, converted by molar mass. Read-outs that look alike come from different tables or passages of the source.

Columns and labels:
Format in all cases: cell-based
[1] = test system: S. aureus (UAMS-1625 strain); assay: MIC by broth microdilution against S. aureus; conditions: Staphylococcus aureus, read-out: MIC S. aureus
[2] = test system: A. baumannii (HUMC1 strain); assay: MIC by broth microdilution against A. baumannii in RPMI + 10% FCS; conditions: Acinetobacter baumannii, read-out: MIC A. baumannii
[3] = test system: M. abscessus subsp. abscessus ATCC 19977; assay: MIC against M. abscessus in Middlebrook 7H9 + ADC; conditions: Mycobacteroides abscessus
[4] = ATCC19977, ATCC 19977, 7H9 + ADC, read-out: MIC M. abscessus

Compound	MIC [1]	MIC ([2]; HUMC1 strain, RPMI + 10% FCS)	MIC [3, 4]	MIC [2]	MIC ([3]; ATCC19977, read-out: MIC M. abscessus)
CO[C@H]1/C=C/O[C@@]2(C)Oc3c(C)c(O)c4c(c3C2=O)C2=NC3(CCN(CC(C)C)CC3)NC2=C(NC(=O)/C(C)=C\C=C\[C@H](C)[C@H](O)[C@@H](C)[C@@H](O)[C@@H](C)[C@H](OC(=O)CC(=O)NCC2CCN(C)CC2)[C@@H]1C)C4=O [Compound 5]	0.125 µg/mL (≈ 0.125 µM)	≤ 0.002 µg/mL	1 µg/mL	–	–
CO[C@H]1/C=C/O[C@@]2(C)Oc3c(C)c(O)c4c(c3C2=O)C2=NC3(CCN(CC(C)C)CC3)NC2=C(NC(=O)/C(C)=C\C=C\[C@H](C)[C@H](O)[C@@H](C)[C@@H](O)[C@@H](C)[C@H](OC(=O)CC(=O)NC2CCN(C)CC2)[C@@H]1C)C4=O [Compound 6]	0.03 µg/mL (≈ 0.0304 µM)	≤ 0.002 µg/mL	1 µg/mL	–	–
CO[C@H]1/C=C/O[C@@]2(C)Oc3c(C)c(O)c4c(c3C2=O)C2=NC3(CCN(CC(C)C)CC3)NC2=C(NC(=O)/C(C)=C\C=C\[C@H](C)[C@H](O)[C@@H](C)[C@@H](O)[C@@H](C)[C@H](OC(=O)CC(=O)N2CCC(N(C)C)CC2)[C@@H]1C)C4=O [Compound 7]	0.016 µg/mL (≈ 0.016 µM)	≤ 0.002 µg/mL	1 µg/mL	–	–
CO[C@H]1/C=C/O[C@@]2(C)Oc3c(C)c(O)c4c(c3C2=O)C2=NC3(CCN(CC(C)C)CC3)NC2=C(NC(=O)/C(C)=C\C=C\[C@H](C)[C@H](O)[C@@H](C)[C@@H](O)[C@@H](C)[C@H](OC(=O)CC(=O)N2CCCCC2)[C@@H]1C)C4=O [Compound 8]	0.016 µg/mL (≈ 0.0167 µM)	0.004 µg/mL	0.5 µg/mL	–	–
CO[C@H]1/C=C/O[C@@]2(C)Oc3c(C)c(O)c4c(c3C2=O)C2=NC3(CCN(CC(C)C)CC3)NC2=C(NC(=O)/C(C)=C\C=C\[C@H](C)[C@H](O)[C@@H](C)[C@@H](O)[C@@H](C)[C@H](OC(=O)CC(=O)N2CCN(C)CC2)[C@@H]1C)C4=O [Compound 10]	0.016 µg/mL (≈ 0.0164 µM)	≤ 0.002 µg/mL	1 µg/mL	–	–
CO[C@H]1/C=C/O[C@@]2(C)Oc3c(C)c(O)c4c(c3C2=O)C2=NC3(CCN(CC(C)C)CC3)NC2=C(NC(=O)/C(C)=C\C=C\[C@H](C)[C@H](O)[C@@H](C)[C@@H](O)[C@@H](C)[C@H](OC(=O)CC(=O)N2CCN(c3ccccc3S(N)(=O)=O)CC2)[C@@H]1C)C4=O [Compound 12]	0.125 µg/mL (≈ 0.112 µM)	0.03 µg/mL	0.5 µg/mL	–	–
CO[C@H]1/C=C/O[C@@]2(C)Oc3c(C)c(O)c4c(c3C2=O)C2=NC3(CCN(CC(C)C)CC3)NC2=C(NC(=O)/C(C)=C\C=C\[C@H](C)[C@H](O)[C@@H](C)[C@@H](O)[C@@H](C)[C@H](OC(=O)CC(=O)N2CCC(N3CCN(C)C(=O)C3)CC2)[C@@H]1C)C4=O [Compound 15]	0.016 µg/mL (≈ 0.0149 µM)	0.004 µg/mL	1 µg/mL	–	–
CCOC(=O)CCNC(=O)CC(=O)O[C@H]1[C@H](C)[C@H](O)[C@H](C)[C@@H](O)[C@@H](C)/C=C/C=C(/C)C(=O)NC2=C3NC4(CCN(CC(C)C)CC4)N=C3c3c(c(O)c(C)c4c3C(=O)[C@@](C)(O/C=C/[C@H](OC)[C@H]1C)O4)C2=O [Compound 16]	0.03 µg/mL (≈ 0.0303 µM)	0.004 µg/mL	2 µg/mL	–	–
COC(=O)CNC(=O)CC(=O)O[C@H]1[C@H](C)[C@H](O)[C@H](C)[C@@H](O)[C@@H](C)/C=C/C=C(/C)C(=O)NC2=C3NC4(CCN(CC(C)C)CC4)N=C3c3c(c(O)c(C)c4c3C(=O)[C@@](C)(O/C=C/[C@H](OC)[C@H]1C)O4)C2=O [Compound 17]	0.03 µg/mL (≈ 0.0312 µM)	≤ 0.002 µg/mL	2 µg/mL	–	–
CO[C@H]1/C=C/O[C@@]2(C)Oc3c(C)c(O)c4c(c3C2=O)C2=NC3(CCN(CC(C)C)CC3)NC2=C(NC(=O)/C(C)=C\C=C\[C@H](C)[C@H](O)[C@@H](C)[C@@H](O)[C@@H](C)[C@H](OC(=O)CC(=O)Nc2ccc(CN3CCCCC3)cc2)[C@@H]1C)C4=O [Compound 18]	0.06 µg/mL (≈ 0.0564 µM)	≤ 0.002 µg/mL	1 µg/mL	–	–
CO[C@H]1/C=C/O[C@@]2(C)Oc3c(C)c(O)c4c(c3C2=O)C2=NC3(CCN(CC(C)C)CC3)NC2=C(NC(=O)/C(C)=C\C=C\[C@H](C)[C@H](O)[C@@H](C)[C@@H](O)[C@@H](C)[C@H](OC(=O)CC(=O)NCCN2CCN(C)CC2)[C@@H]1C)C4=O [Compound 20]	0.03 µg/mL (≈ 0.0295 µM)	≤ 0.002 µg/mL	1 µg/mL	–	–
CO[C@H]1/C=C/O[C@@]2(C)Oc3c(C)c(O)c4c(c3C2=O)C2=NC3(CCN(CC(C)C)CC3)NC2=C(NC(=O)/C(C)=C\C=C\[C@H](C)[C@H](O)[C@@H](C)[C@@H](O)[C@@H](C)[C@H](OC(=O)CC(=O)NCCN2CCOCC2)[C@@H]1C)C4=O [Compound 23]	0.03 µg/mL (≈ 0.0299 µM)	≤ 0.002 µg/mL	1 µg/mL	–	–
CO[C@H]1/C=C/O[C@@]2(C)Oc3c(C)c(O)c4c(c3C2=O)C2=NC3(CCN(CC(C)C)CC3)NC2=C(NC(=O)/C(C)=C\C=C\[C@H](C)[C@H](O)[C@@H](C)[C@@H](O)[C@@H](C)[C@H](OC(=O)CC(=O)OCc2ccccc2)[C@@H]1C)C4=O [Compound 26]	0.5 µg/mL (≈ 0.51 µM)	0.03 µg/mL	4 µg/mL	–	–
CO[C@H]1/C=C/O[C@@]2(C)Oc3c(C)c(O)c4c(c3C2=O)C2=NC3(CCN(CC(C)C)CC3)NC2=C(NC(=O)/C(C)=C\C=C\[C@H](C)[C@H](O)[C@@H](C)[C@@H](O)[C@@H](C)[C@H](OC(=O)CC(=O)OCC(C)C)[C@@H]1C)C4=O [Compound 27]	0.125 µg/mL (≈ 0.132 µM)	0.016 µg/mL	4 µg/mL	–	–
CO[C@H]1/C=C/O[C@@]2(C)Oc3c(C)c(O)c4c(c3C2=O)C2=NC3(CCN(CC(C)C)CC3)NC2=C(NC(=O)/C(C)=C\C=C\[C@H](C)[C@H](O)[C@@H](C)[C@@H](O)[C@@H](C)[C@H](OC(=O)CC(=O)NCCCN(C)C)[C@@H]1C)C4=O [Compound 29]	0.03 µg/mL (≈ 0.0308 µM)	≤ 0.002 µg/mL	1 µg/mL	–	–
CO[C@H]1/C=C/O[C@@]2(C)Oc3c(C)c(O)c4c(c3C2=O)C2=NC3(CCN(CC(C)C)CC3)NC2=C(NC(=O)/C(C)=C\C=C\[C@H](C)[C@H](O)[C@@H](C)[C@@H](O)[C@@H](C)[C@H](OC(=O)CC(=O)NCCN(C)C)[C@@H]1C)C4=O [Compound 30]	0.03 µg/mL (≈ 0.0312 µM)	≤ 0.002 µg/mL	1 µg/mL	–	–
CO[C@H]1/C=C/O[C@@]2(C)Oc3c(C)c(O)c4c(c3C2=O)C2=NC3(CCN(CC(C)C)CC3)NC2=C(NC(=O)/C(C)=C\C=C\[C@H](C)[C@H](O)[C@@H](C)[C@@H](O)[C@@H](C)[C@H](OC(=O)CC(=O)OCCc2ccccc2)[C@@H]1C)C4=O [Compound 31]	1 µg/mL (≈ 1 µM)	0.125 µg/mL	4 µg/mL	–	–
COCCCNC(=O)CC(=O)O[C@H]1[C@H](C)[C@H](O)[C@H](C)[C@@H](O)[C@@H](C)/C=C/C=C(/C)C(=O)NC2=C3NC4(CCN(CC(C)C)CC4)N=C3c3c(c(O)c(C)c4c3C(=O)[C@@](C)(O/C=C/[C@H](OC)[C@H]1C)O4)C2=O [Compound 34]	0.016 µg/mL (≈ 0.0166 µM)	≤ 0.002 µg/mL	1 µg/mL	–	–
CO[C@H]1/C=C/O[C@@]2(C)Oc3c(C)c(O)c4c(c3C2=O)C2=NC3(CCN(CC(C)C)CC3)NC2=C(NC(=O)/C(C)=C\C=C\[C@H](C)[C@H](O)[C@@H](C)[C@@H](O)[C@@H](C)[C@H](OC(=O)CC(=O)Nc2ccc(CN3CCN(C)CC3)cc2)[C@@H]1C)C4=O [Compound 36]	0.016 µg/mL (≈ 0.0148 µM)	≤ 0.002 µg/mL	1 µg/mL	–	–
CO[C@H]1/C=C/O[C@@]2(C)Oc3c(C)c(O)c4c(c3C2=O)C2=NC3(CCN(CC(C)C)CC3)NC2=C(NC(=O)/C(C)=C\C=C\[C@H](C)[C@H](O)[C@@H](C)[C@@H](O)[C@@H](C)[C@H](OC(=O)C(C)C(=O)N2CCCCC2)[C@@H]1C)C4=O (stereo partly drawn) [Compound 37]	0.03 µg/mL (≈ 0.0309 µM)	≤ 0.002 µg/mL	0.5 µg/mL	–	–
CO[C@H]1/C=C/O[C@@]2(C)Oc3c(C)c(O)c4c(c3C2=O)C2=NC3(CCN(CC(C)C)CC3)NC2=C(NC(=O)/C(C)=C\C=C\[C@H](C)[C@H](O)[C@@H](C)[C@@H](O)[C@@H](C)[C@H](OC(=O)C(C)C(=O)N2CCN(c3ccccc3S(N)(=O)=O)CC2)[C@@H]1C)C4=O (stereo partly drawn) [Compound 38]	0.25 µg/mL (≈ 0.222 µM)	0.008 µg/mL	0.5 µg/mL	–	–
CO[C@H]1/C=C/O[C@@]2(C)Oc3c(C)c(O)c4c(c3C2=O)C2=NC3(CCN(CC(C)C)CC3)NC2=C(NC(=O)/C(C)=C\C=C\[C@H](C)[C@H](O)[C@@H](C)[C@@H](O)[C@@H](C)[C@H](OC(=O)C(C)C(=O)N2CCC(Nc3ccccc3)CC2)[C@@H]1C)C4=O (stereo partly drawn) [Compound 41]	0.5 µg/mL (≈ 0.47 µM)	–	–	0.016 µg/mL	0.5 µg/mL
CO[C@H]1/C=C/O[C@@]2(C)Oc3c(C)c(O)c4c(c3C2=O)C2=NC3(CCN(CC(C)C)CC3)NC2=C(NC(=O)/C(C)=C\C=C\[C@H](C)[C@H](O)[C@@H](C)[C@@H](O)[C@@H](C)[C@H](OC(=O)C(C)C(=O)N2CCC(n3c(=O)[nH]c5ccccc53)CC2)[C@@H]1C)C4=O (stereo partly drawn) [Compound 42]	0.5 µg/mL (≈ 0.453 µM)	0.03 µg/mL	0.5 µg/mL	–	–
CO[C@H]1/C=C/O[C@@]2(C)Oc3c(C)c(O)c4c(c3C2=O)C2=NC3(CCN(CC(C)C)CC3)NC2=C(NC(=O)/C(C)=C\C=C\[C@H](C)[C@H](O)[C@@H](C)[C@@H](O)[C@@H](C)[C@H](OC(=O)C(C)C(=O)N2CCc3[nH]c5ccccc5c3C2)[C@@H]1C)C4=O (stereo partly drawn) [Compound 43]	0.5 µg/mL (≈ 0.472 µM)	0.06 µg/mL	0.5 µg/mL	–	–
